Test results published in ChEMBL document CHEMBL1201862, “PubChem BioAssay data set” (2004).
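Values below derive from 48-hour exposures of cells grown in 96-well plates, with endpoints linearly interpolated between the two concentrations bracketing the appropriate inhibition level. GI50 = concentration required for 50% inhibition of growth.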 The source made the active and inactive calls. Rule as the data show it: active = GI50 up to about 1.1 µM and inactive = higher.

How the values were obtained:
Experiment in all cases: NCI tumour cell line growth inhibition, 48 h
[1] = system: 786-0
[2] = system: A498
[3] = system: A549
[4] = system: ACHN
[5] = system: BT-549
[6] = system: CAKI-1
[7] = system: CCRF-CEM
[8] = system: COLO 205
[9] = system: DU-145
[10] = system: EKVX
[11] = system: HCT-116
[12] = system: HCT-15
[13] = system: HL-60
[14] = system: HOP-62
[15] = system: HOP-92
[16] = system: HT-29
[17] = system: Hs-578T
[18] = system: IGROV-1
[19] = system: K562
[20] = system: KM12
[21] = system: LOX IMVI
[22] = system: M14
[23] = system: MCF7
[24] = system: MDA-MB-231
[25] = system: MDA-MB-435
[26] = system: MDA-N
[27] = system: MOLT-4
[28] = system: Malme-3M
[29] = system: NCI-H226
[30] = system: NCI-H23
[31] = system: NCI-H460
[32] = system: NCI-H522
[33] = system: NCI/ADR-RES
[34] = system: OVCAR-3
[35] = system: OVCAR-4
[36] = system: OVCAR-5
[37] = system: OVCAR-8
[38] = system: PC-3
[39] = system: RPMI-8226
[40] = system: RXF 393
[41] = system: SF-268
[42] = system: SF-295
[43] = system: SF-539
[44] = system: SK-MEL-2
[45] = system: SK-MEL-5
[46] = system: SK-OV-3
[47] = system: SN12C
[48] = system: SNB-19
[49] = system: SNB-75
[50] = system: SR
[51] = system: SW-620
[52] = system: T47D
[53] = system: TK-10
[54] = system: U-251
[55] = system: UACC-257
[56] = system: UACC-62
[57] = system: UO-31
[58] = system: HCC 2998
[59] = system: SK-MEL-28

For Cn1c2cn[nH]c(=O)c2c2ccc3ccccc3c21, which GI50 [1] is on record?
The GI50 was 7.62 µM (inactive).

And the GI50 [2]?
The GI50 was 9.04 µM (inactive).

What about the GI50 [3] of the same molecule?
Its GI50 is 27.7 µM (inactive).

And the GI50 [4]?
Its GI50 is 16.9 µM (inactive).

What about the GI50 [5] of the same molecule?
Its GI50 is 42.9 µM (inactive).

What about the GI50 [6] of the same molecule?
Its GI50 is 42.4 µM (inactive).

What about the GI50 [7] of the same molecule?
The GI50 was 59.2 µM (inactive).

And the GI50 [8]?
Its GI50 is 23.9 µM (inactive).

And the GI50 [9]?
The GI50 was 59.3 µM (inactive).

And the GI50 [10]?
Its GI50 is 3.6 µM (inactive).

And the GI50 [11]?
Its GI50 is 29 µM (inactive).

And the GI50 [12]?
Its GI50 is 23.9 µM.

What about the GI50 [13] of the same molecule?
Its GI50 is 85.5 µM (inactive).

And the GI50 [14]?
The GI50 was 13.1 µM (inactive).

What about the GI50 [15] of the same molecule?
Its GI50 is 10.6 µM (inactive).

What about the GI50 [16] of the same molecule?
The GI50 was 37.3 µM (inactive).

What about the GI50 [17] of the same molecule?
The GI50 was 11.9 µM (inactive).

And the GI50 [18]?
Its GI50 is 11.7 µM (inactive).

What about the GI50 [19] of the same molecule?
Its GI50 is 86.1 µM (inactive).

What about the GI50 [20] of the same molecule?
The GI50 was > 100 µM (inactive).

What about the GI50 [21] of the same molecule?
The GI50 was 21.9 µM (inactive).

What about the GI50 [22] of the same molecule?
The GI50 was > 100 µM (inactive).

What about the GI50 [23] of the same molecule?
The GI50 was 30.2 µM (inactive).

What about the GI50 [24] of the same molecule?
Its GI50 is 15.4 µM (inactive).

And the GI50 [25]?
Its GI50 is 69.7 µM (inactive).

And the GI50 [26]?
Its GI50 is > 100 µM (inactive).

What about the GI50 [27] of the same molecule?
The GI50 was 27.2 µM (inactive).

And the GI50 [28]?
The GI50 was > 100 µM (inactive).

What about the GI50 [29] of the same molecule?
Its GI50 is 36.1 µM (inactive).

What about the GI50 [30] of the same molecule?
The GI50 was 21.6 µM (inactive).

And the GI50 [31]?
Its GI50 is 20 µM (inactive).

What about the GI50 [32] of the same molecule?
The GI50 was 16.9 µM (inactive).

What about the GI50 [33] of the same molecule?
Its GI50 is 84.1 µM (inactive).

And the GI50 [34]?
The GI50 was > 100 µM (inactive).

And the GI50 [35]?
The GI50 was 58.1 µM (inactive).

What about the GI50 [36] of the same molecule?
Its GI50 is > 100 µM (inactive).

What about the GI50 [37] of the same molecule?
Its GI50 is 41.6 µM (inactive).

What about the GI50 [38] of the same molecule?
Its GI50 is 51.2 µM (inactive).

And the GI50 [39]?
The GI50 was 60.3 µM (inactive).

And the GI50 [40]?
Its GI50 is 19.3 µM (inactive).

What about the GI50 [41] of the same molecule?
The GI50 was 22.6 µM (inactive).

And the GI50 [42]?
Its GI50 is 18.9 µM (inactive).

And the GI50 [43]?
The GI50 was 48.4 µM (inactive).

What about the GI50 [44] of the same molecule?
Its GI50 is 18.2 µM (inactive).

What about the GI50 [45] of the same molecule?
Its GI50 is 31.5 µM (inactive).

What about the GI50 [46] of the same molecule?
The GI50 was 28.8 µM (inactive).

What about the GI50 [47] of the same molecule?
The GI50 was 44.6 µM (inactive).

And the GI50 [48]?
Its GI50 is 26.5 µM (inactive).

What about the GI50 [49] of the same molecule?
Its GI50 is 16.1 µM (inactive).

What about the GI50 [50] of the same molecule?
The GI50 was 35.9 µM (inactive).

And the GI50 [51]?
The GI50 was 52.6 µM (inactive).

What about the GI50 [52] of the same molecule?
The GI50 was > 100 µM (inactive).

What about the GI50 [53] of the same molecule?
The GI50 was 49.8 µM (inactive).

What about the GI50 [54] of the same molecule?
The GI50 was 19.9 µM (inactive).

What about the GI50 [55] of the same molecule?
Its GI50 is > 100 µM (inactive).

And the GI50 [56]?
The GI50 was 22.4 µM (inactive).

What about the GI50 [57] of the same molecule?
Its GI50 is 16.1 µM (inactive).

With N=C(N)N/N=C/c1c(-c2ccc(Cl)cc2)nc2sccn12 as the molecule, how does the GI50 [1] read?
Its GI50 is 1.61 µM (inactive).

What about the GI50 [2] of the same molecule?
Its GI50 is 3.11 µM (inactive).

What about the GI50 [3] of the same molecule?
The GI50 was 1.64 µM (inactive).

What about the GI50 [4] of the same molecule?
The GI50 was 1.5 µM (inactive).

And the GI50 [5]?
The GI50 was 3.01 µM (inactive).

And the GI50 [6]?
The GI50 was 3.21 µM (inactive).

What about the GI50 [7] of the same molecule?
Its GI50 is 1.79 µM (inactive).

What about the GI50 [8] of the same molecule?
Its GI50 is 1.46 µM (inactive).

What about the GI50 [9] of the same molecule?
Its GI50 is 3.34 µM (inactive).

What about the GI50 [10] of the same molecule?
Its GI50 is 14.6 µM (inactive).

What about the GI50 [58] of the same molecule?
The GI50 was 1.35 µM (inactive).

And the GI50 [11]?
The GI50 was 1.6 µM (inactive).

And the GI50 [12]?
Its GI50 is 2.54 µM.

What about the GI50 [14] of the same molecule?
Its GI50 is 1.79 µM (inactive).

What about the GI50 [15] of the same molecule?
The GI50 was 2.1 µM (inactive).

And the GI50 [16]?
The GI50 was 1.69 µM (inactive).

And the GI50 [17]?
The GI50 was 4.97 µM (inactive).

And the GI50 [18]?
Its GI50 is 1.85 µM (inactive).

What about the GI50 [19] of the same molecule?
Its GI50 is 2.18 µM (inactive).

What about the GI50 [20] of the same molecule?
Its GI50 is 1.96 µM (inactive).

What about the GI50 [21] of the same molecule?
The GI50 was 1.65 µM (inactive).

And the GI50 [22]?
Its GI50 is 1.63 µM (inactive).

And the GI50 [23]?
Its GI50 is 1.72 µM (inactive).

And the GI50 [24]?
Its GI50 is 2.77 µM (inactive).

What about the GI50 [25] of the same molecule?
The GI50 was 1.74 µM (inactive).

And the GI50 [26]?
The GI50 was 1.79 µM (inactive).

What about the GI50 [27] of the same molecule?
Its GI50 is 2 µM (inactive).

What about the GI50 [28] of the same molecule?
Its GI50 is 2.71 µM (inactive).

And the GI50 [29]?
The GI50 was 2.21 µM (inactive).

What about the GI50 [30] of the same molecule?
Its GI50 is 4.43 µM (inactive).

What about the GI50 [31] of the same molecule?
The GI50 was 1.76 µM (inactive).

What about the GI50 [32] of the same molecule?
Its GI50 is 1.56 µM (inactive).

And the GI50 [33]?
Its GI50 is 5.4 µM (inactive).

And the GI50 [34]?
Its GI50 is 1.6 µM (inactive).

What about the GI50 [35] of the same molecule?
Its GI50 is 2.06 µM (inactive).

What about the GI50 [36] of the same molecule?
The GI50 was 2.3 µM (inactive).

What about the GI50 [37] of the same molecule?
The GI50 was 1.95 µM (inactive).

What about the GI50 [38] of the same molecule?
The GI50 was 1.62 µM (inactive).

What about the GI50 [39] of the same molecule?
Its GI50 is 2.61 µM (inactive).

And the GI50 [40]?
The GI50 was 1.35 µM (inactive).

What about the GI50 [41] of the same molecule?
The GI50 was 1.8 µM (inactive).

And the GI50 [42]?
The GI50 was 1.64 µM (inactive).

What about the GI50 [43] of the same molecule?
The GI50 was 1.83 µM (inactive).

And the GI50 [59]?
Its GI50 is 1.85 µM (inactive).

And the GI50 [44]?
The GI50 was 1.95 µM (inactive).

What about the GI50 [45] of the same molecule?
Its GI50 is 1.65 µM (inactive).

And the GI50 [46]?
Its GI50 is 2.66 µM (inactive).

And the GI50 [47]?
The GI50 was 1.95 µM (inactive).

What about the GI50 [48] of the same molecule?
Its GI50 is 4.09 µM (inactive).

What about the GI50 [49] of the same molecule?
The GI50 was 1.77 µM (inactive).

And the GI50 [50]?
Its GI50 is 3.46 µM (inactive).

What about the GI50 [51] of the same molecule?
The GI50 was 1.55 µM (inactive).

What about the GI50 [52] of the same molecule?
Its GI50 is 1.33 µM (inactive).

What about the GI50 [53] of the same molecule?
The GI50 was 3.01 µM (inactive).

And the GI50 [54]?
Its GI50 is 1.86 µM (inactive).

And the GI50 [55]?
The GI50 was 1.95 µM (inactive).

And the GI50 [56]?
Its GI50 is 1.69 µM (inactive).

What about the GI50 [57] of the same molecule?
The GI50 was 2.48 µM (inactive).
